Reference: patent US20250151727A1, “(S)-ABSCISIC ACID FOR REDUCING FRUIT DROP” (Valent BioSciences LLC, priority 2023, published 2025)

Tests used:
Type in all cases: in vivo
[1] = system: 'Midknight Valencia' sweet orange trees; assay: Fruit drop after foliar spray, 'Midknight Valencia' sweet orange, Porterville (Example 1); conditions: for # Fruit per Tree / % Change in # Fruit per Tree: ProTone SG, 28 days after 100% petal drop; for % Change in # Fruit per Tree: vs untreated control
Protocol: ProTone™ SG was applied to mature ‘Midknight Valencia’ sweet orange trees in a commercial orchard near Porterville (33°08′37.54″S, 18°59′35.90″E) in the Western Cape Province of South Africa. The experiment consisted of a completely randomized design and consisted of 10 single-tree replicates. S-ABA was applied as a foliar spray at 75, 150 and 300 parts per million (“ppm”) and compared to an untreated control (only water) at 2 liters per tree. All treatments were applied with a non-ionic wetting agent (Villa 51® having the active ingredient isotridecanol and available from Villa Crop Protection (Pty) Ltd) at a rate of 6 milliliters per 100 liters of water. Treatments were applied 28 days after 100% petal drop on 31 Oct. 2019. See Results in Table 1, below.

'Orri' mandarin trees = assay: Fruit drop after foliar spray, 'Orri' mandarin, Piketberg, open and shade-netted orchards (Example 2); conditions: 150 ppm; for # Fruit per Tree / % Change in # Fruit per Tree: ProTone SG, 28 days after 100% petal drop
Protocol: ProTone™ SG was applied to mature ‘Orri’ mandarin trees in a commercial orchard near Piketberg (33°04′46.3″S 18°50′04.7″E) in the Western Cape Province of South Africa. Two trials were conducted, one in an orchard covered with permanent shade netting, and the other in an open orchard. The experiment consisted of 5 trees per plot for each of covered and open orchard. S-ABA was applied as a foliar spray at 150 ppm and compared to an untreated control at 3.4 liters per tree for the covered orchard and 2.8 liters per tree for the open orchard. All treatments were applied with Villa 51® at a rate of 6 milliliters per 100 liters of water. Treatments were applied 28 days after 100% petal drop on 29 Nov. 2021. See Results in Table 2, below.

[2] = system: 'Midnight Valencia' sweet orange trees; assay: Fruit drop, 'Midnight Valencia' sweet orange, Mpumalanga (Example 7); conditions: for # Fruit per Tree / % Change in # Fruit per Tree: Excelero SL; for % Change in # Fruit per Tree: vs untreated control
Excerpt: Excelero™ SL was applied to mature ‘Midnight Valencia’ sweet orange trees in a commercial orchard near Mpumalanga, South Africa. The experiment consisted of a completely randomized design. S-ABA was applied at 20, 40 and 80 ppm in the form of Excelero™ SL and compared to an untreated control. All treatments were applied with Villa 51® at a rate of 6 milliliters per 100 liters of water. Treatments were applied 14, 21 and 28 days after 100% petal drop (“DAP”). See Results in Table 7, below.

Substance: (S)-abscisic acid [S-ABA]
- effect on fruit drop as compared to untreated control ([1]; 75 and 150 ppm): reduced fruit drop
- # Fruit per Tree ([1]; 75 ppm foliar spray): 413
- % Change in # Fruit per Tree ([1]; 75 ppm foliar spray): 11%
- # Fruit per Tree ([1]; 150 ppm foliar spray): 444
- % Change in # Fruit per Tree ([1]; 150 ppm foliar spray): 20%
- effect on fruit drop as compared to untreated control ([1]; 300 ppm): increasing fruit drop
- # Fruit per Tree ([1]; 300 ppm foliar spray): 351
- % Change in # Fruit per Tree ([1]; 300 ppm foliar spray): −5%
- effect on fruit drop as compared to untreated control ('Orri' mandarin trees): increased fruit drop
- # Fruit per Tree ('Orri' mandarin trees; no shade (open orchard)): 397
- % Change in # Fruit per Tree ('Orri' mandarin trees; no shade (open orchard), vs untreated control (no shade)): −28%
- # Fruit per Tree ('Orri' mandarin trees; shade (permanent shade netting)): 82
- % Change in # Fruit per Tree ('Orri' mandarin trees; shade (permanent shade netting), vs untreated control (shade)): −78%
- effect on fruit drop as compared to untreated control ([2]; 20, 40 and 80 ppm at each of 14, 21 and 28 days after 100% petal drop): reduced fruit drop
- # Fruit per Tree ([2]; 20 ppm @ 14 DAP): 239
- % Change in # Fruit per Tree ([2]; 20 ppm @ 14 DAP): 19%
- # Fruit per Tree ([2]; 20 ppm @ 21 DAP): 263
- % Change in # Fruit per Tree ([2]; 20 ppm @ 21 DAP): 31%
- # Fruit per Tree ([2]; 20 ppm @ 28 DAP): 245
- % Change in # Fruit per Tree ([2]; 20 ppm @ 28 DAP): 22%
- # Fruit per Tree ([2]; 40 ppm @ 14 DAP): 221
- % Change in # Fruit per Tree ([2]; 40 ppm @ 14 DAP): 10%
- # Fruit per Tree ([2]; 40 ppm @ 21 DAP): 246
- % Change in # Fruit per Tree ([2]; 40 ppm @ 21 DAP): 22%
- # Fruit per Tree ([2]; 40 ppm @ 28 DAP): 230
- % Change in # Fruit per Tree ([2]; 40 ppm @ 28 DAP): 14%
- # Fruit per Tree ([2]; 80 ppm @ 14 DAP): 255
- % Change in # Fruit per Tree ([2]; 80 ppm @ 14 DAP): 27%
- # Fruit per Tree ([2]; 80 ppm @ 21 DAP): 256
- % Change in # Fruit per Tree ([2]; 80 ppm @ 21 DAP): 27%
- # Fruit per Tree ([2]; 80 ppm @ 28 DAP): 285
- % Change in # Fruit per Tree ([2]; 80 ppm @ 28 DAP): 42%
